ChEMBL document CHEMBL4295262, “Evaluation of the utility of stem-cell derived cardiomyocytes for drug proarrhythmic potential” (2019)
Blank lines part the entries; values can stand above or below the molecule they belong to.

Tests used:
[1] = (§1) Electrical activity assay on cell lines treated with a given drug. DMSO was used as a vehicle and a control, unblinded dofetilide was used as a control.; details: human, ipsc-cm, 1 µM
[2] = as §1; assay type: ADME, cell-based; set-up: FPDc: unit not given here; details: human, ipsc-cm
[3] = as §1; assay type: ADME, cell-based; details: human, ipsc-cm, 0.01 µM; concentration (um) 0.01 uM
[4] = as §1; assay type: ADME, cell-based; details: human, ipsc-cm
[5] = as §1; assay type: ADME, cell-based; set-up: FPDc: unit not given here; details: human, ipsc-cm; remark: listed apart in the source
[6] = as §1; details: human, ipsc-cm
[7] = as §1; details: human, ipsc-cm; remark: listed apart in the source
[8] = 0.001 µM, concentration (um) 0.001 uM
[9] = 0.01 µM, concentration (um) 0.01 uM
[10] = 0.003169 µM, concentration (um) 0.00316912 uM
[11] = 0.01001 µM, concentration (um) 0.0100144 uM
[12] = 0.03165 µM, concentration (um) 0.0316456 uM
[13] = 0.1 µM, concentration (um) 0.1 uM

FPDc [1]: 70.37
FPDc [2, 8]: 0.03393
FPDc [3]: 20.63
FPD measurement [4, 8]: 49.93 FPDc
FPDc [5, 9]: 50.28
FPD measurement ([6]; 0.001 µM): 55.35 FPDc
FPDc ([6]; 0.001 µM): 55.35
SMILES: C[S+](C)[O-] [DIMETHYL SULFOXIDE]
FPD measurement [3]: 25 Values Out Of 25 Were Excluded Due To Quiescence Or 0 Apdc
FPDc [4, 8]: 72 Values Out Of 72 Were Excluded Due To Quiescence Or 0 Fpdc

FPDc ([2]; 0.0009507 µM, concentration (um) 0.000950736 uM): 0.02441
FPDc ([2]; 0.003004 µM, concentration (um) 0.00300433 uM): 0.02167
FPDc ([2]; 0.009494 µM, concentration (um) 0.00949367 uM): 0.02089
FPDc ([2]; 0.03 µM, concentration (um) 0.03 uM): 0.02123
FPD measurement ([6]; 0.0009507 µM): 54.17 FPDc
FPDc ([6]; 0.0009507 µM): 54.17
FPD measurement ([6]; 0.003004 µM): 54.08 FPDc
FPDc ([6]; 0.003004 µM): 54.08
FPD measurement ([6]; 0.009494 µM): 55.38 FPDc
FPDc ([6]; 0.009494 µM): 55.38
FPD measurement ([6]; 0.03 µM): 55.57 FPDc
FPDc ([6]; 0.03 µM): 55.57
SMILES: CCOC(=O)N1CCC(=C2c3ccc(Cl)cc3CCc3cccnc32)CC1 [LORATADINE]
FPD measurement ([7]; 0.0009507 µM): 1 Values Out Of 1 Were Excluded Due To Quiescence Or 0 Fpdc
FPDc ([7]; 0.0009507 µM): 1 Values Out Of 1 Were Excluded Due To Quiescence Or 0 Fpdc
FPD measurement ([7]; 0.003004 µM): 1 Values Out Of 1 Were Excluded Due To Quiescence Or 0 Fpdc
FPDc ([7]; 0.003004 µM): 1 Values Out Of 1 Were Excluded Due To Quiescence Or 0 Fpdc
FPD measurement ([7]; 0.009494 µM): 1 Values Out Of 1 Were Excluded Due To Quiescence Or 0 Fpdc
FPDc ([7]; 0.009494 µM): 1 Values Out Of 1 Were Excluded Due To Quiescence Or 0 Fpdc
FPD measurement ([7]; 0.03 µM): 1 Values Out Of 1 Were Excluded Due To Quiescence Or 0 Fpdc
FPDc ([7]; 0.03 µM): 1 Values Out Of 1 Were Excluded Due To Quiescence Or 0 Fpdc

SMILES: Cc1nc2n(c(=O)c1CCN1CCC(c3noc4cc(F)ccc34)CC1)CCCC2 [RISPERIDONE]
FPDc [2, 10]: 0.03911
FPDc [2, 11]: 0.03923
FPDc [2, 12]: 0.03847
FPDc [2, 13]: 0.03663
FPD measurement ([7]; 0.003169 µM): 1 Values Out Of 1 Were Excluded Due To Quiescence Or 0 Fpdc
FPDc ([7]; 0.003169 µM): 1 Values Out Of 1 Were Excluded Due To Quiescence Or 0 Fpdc
FPD measurement ([7]; 0.01001 µM): 1 Values Out Of 1 Were Excluded Due To Quiescence Or 0 Fpdc
FPDc ([7]; 0.01001 µM): 1 Values Out Of 1 Were Excluded Due To Quiescence Or 0 Fpdc
FPD measurement ([7]; 0.03165 µM): 1 Values Out Of 1 Were Excluded Due To Quiescence Or 0 Fpdc
FPDc ([7]; 0.03165 µM): 1 Values Out Of 1 Were Excluded Due To Quiescence Or 0 Fpdc
FPD measurement ([7]; 0.1 µM): 1 Values Out Of 1 Were Excluded Due To Quiescence Or 0 Fpdc
FPDc ([7]; 0.1 µM): 1 Values Out Of 1 Were Excluded Due To Quiescence Or 0 Fpdc
FPD measurement [5, 10]: 5 Values Out Of 5 Were Excluded Due To Quiescence Or 0 Apdc
FPDc [5, 10]: 54.79
FPD measurement [5, 11]: 5 Values Out Of 5 Were Excluded Due To Quiescence Or 0 Apdc
FPDc [5, 11]: 49.58
FPD measurement [5, 12]: 5 Values Out Of 5 Were Excluded Due To Quiescence Or 0 Apdc
FPDc [5, 12]: 47.1
FPD measurement [5, 13]: 5 Values Out Of 5 Were Excluded Due To Quiescence Or 0 Apdc
FPDc [5, 13]: 61.9
FPD measurement ([6]; 0.003169 µM): 55.22 FPDc
FPDc ([6]; 0.003169 µM): 55.22
FPD measurement ([6]; 0.01001 µM): 55.61 FPDc
FPDc ([6]; 0.01001 µM): 55.61
FPD measurement ([6]; 0.03165 µM): 57.01 FPDc
FPDc ([6]; 0.03165 µM): 57.01
FPD measurement ([6]; 0.1 µM): 65.06 FPDc
FPDc ([6]; 0.1 µM): 65.06

FPDc [2, 8]: 0.02679
FPDc [2, 9]: 0.03865
FPD measurement [4, 8]: 52.61 FPDc
FPD measurement [4, 9]: 58.45 FPDc
FPDc [5, 8]: 48.96
FPDc [5, 9]: 54.23
FPDc [5, 13]: 56.48
FPDc ([5]; 1 µM, concentration (um) 1 uM): 50.52
SMILES: COc1ccc(CCN(C)CCCC(C#N)(c2ccc(OC)c(OC)c2)C(C)C)cc1OC (stereo not given) [VERAPAMIL]
FPD measurement [2, 13]: More Than Half The Wells Had A Quiescence Event Or Fpdc Readings Of 0
FPDc [2, 13]: More Than Half The Wells Had A Quiescence Event Or Fpdc Readings Of 0
FPD measurement ([2]; 1 µM, concentration (um) 1 uM): More Than Half The Wells Had A Quiescence Event Or Fpdc Readings Of 0
FPDc ([2]; 1 µM, concentration (um) 1 uM): More Than Half The Wells Had A Quiescence Event Or Fpdc Readings Of 0
FPDc [4, 8]: 6 Values Out Of 6 Were Excluded Due To Quiescence Or 0 Fpdc
FPDc [4, 9]: 6 Values Out Of 6 Were Excluded Due To Quiescence Or 0 Fpdc
FPDc [4, 13]: 6 Values Out Of 6 Were Excluded Due To Quiescence Or 0 Fpdc
FPDc ([4]; 1 µM, concentration (um) 1 uM): 6 Values Out Of 6 Were Excluded Due To Quiescence Or 0 Fpdc
FPD measurement ([7]; 0.001 µM): 1 Values Out Of 1 Were Excluded Due To Quiescence Or 0 Fpdc
FPDc ([7]; 0.001 µM): 1 Values Out Of 1 Were Excluded Due To Quiescence Or 0 Fpdc
FPD measurement ([7]; 0.01 µM): 1 Values Out Of 1 Were Excluded Due To Quiescence Or 0 Fpdc
FPDc ([7]; 0.01 µM): 1 Values Out Of 1 Were Excluded Due To Quiescence Or 0 Fpdc
FPD measurement ([7]; 0.1 µM): 1 Values Out Of 1 Were Excluded Due To Quiescence Or 0 Fpdc
FPDc ([7]; 0.1 µM): 1 Values Out Of 1 Were Excluded Due To Quiescence Or 0 Fpdc
FPD measurement ([7]; 1 µM): 1 Values Out Of 1 Were Excluded Due To Quiescence Or 0 Fpdc
FPDc ([7]; 1 µM): 1 Values Out Of 1 Were Excluded Due To Quiescence Or 0 Fpdc
FPD measurement [5, 8]: 5 Values Out Of 5 Were Excluded Due To Quiescence Or 0 Apdc
FPD measurement [5, 9]: 5 Values Out Of 5 Were Excluded Due To Quiescence Or 0 Apdc
FPD measurement [5, 13]: 5 Values Out Of 5 Were Excluded Due To Quiescence Or 0 Apdc
FPD measurement ([5]; 1 µM, concentration (um) 1 uM): 5 Values Out Of 5 Were Excluded Due To Quiescence Or 0 Apdc
